Tests used:
[1] = Hydrolysis of Compound 10 in aqueous solution; format: physicochemical
Protocol: Mannitol (39.2 mg) and Kleptose® HP (hydroxypropyl-β-cyclodextrin; 49 mg) are dissolved in sterile water for injection (599 mg) at room temperature. Compound 10 (1.167 mg) is dispersed in tert-butanol (312 mg) by magnetic stirring protected from light at room temperature during 10 minutes. A few mL of the Mannitol/Kleptose® solution is poured into the Compound 10 dispersion in order to solubilize the Compound 10. After forming a solution, the remaining Mannitol/Kleptose® solution is added. The solution is stirred for a few minutes while protected from light. In Formulation 7, the pH is adjusted with phosphoric acid (2M) down to pH 4.0±0.2. In Formulation 8, the pH is about 8 and is not adjusted. The pre-lyophilization solution is filtered through a sterile disposable PVDF filter of 0.22 μm (Stericup Millipore®) to form a clear solution. 4 mL of the filtered pre-lyophilization solution is transferred into a 10 mL bottle and then freeze-dried.
Analysis of the pre-lyophilization solutions for Formulations 7 and 8 were performed at T0 and after 48 hours storage at 25° C. Compound 1 was analyzed because Compound 10 is known to convert to Compound 1 in aqueous solution.

angiogenesis = conditions: in vitro; cited from earlier work
[2] = system: normal human epithelial cells, bone marrow progenitors, and bone marrow-derived stromal cells; conditions: cited from earlier work
[3] = Stability of Compound 1 drug substance; format: physicochemical
Excerpt: Piva, R. R., et al., Blood, 1 Mar. 2008, vol 111, No. 5, p 2765-2775. […] Id.
Compound 1 is currently undergoing clinical trials.

[4] = system: RANKL-induced osteoclastoenesis; conditions: in vitro; cited from earlier work

Hydrolysis in aqueous solution ([1]; aqueous solution, converts to Compound 1)	Compound 10 remaining in obtained lyophilized cake ([1]; lyophilized cake of Formulations 7 and 8 (4 mL fill))	Stability in solution ([3]; solution)	Compound	Anti-angiogenic activity (angiogenesis)	Cytotoxicity profile [2]	Stability of the compound ([3]; exposure to air and/or light, some batches degrade at temperatures as low as 5° C.)	RANKL-induced osteoclastoenesis [4]
readily hydrolyzed	< 0.01 mg	–	6-(2S,3R)-N-[(1R)-1-(1,3,6,2-dioxazaborocan-2-yl)-3-methylbutyl}-3-hydroxy-2-{(6-phenylpyridin-2-yl)formamido]butanamide [Compound 10]	–	–	–	–
–	–	unstable in solution	CC(C)C[C@H](NC(=O)[C@@H](NC(=O)c1cccc(-c2ccccc2)n1)[C@@H](C)O)B(O)O [Compound 1, [(1R)-1-[[(2S,3R)-3-Hydroxy-2-[[(6-phenylpyridin-2-yl)carbonyl]amino]-1-oxobutyl]amino]-3-methylbutyl]boronic acid]	strong anti-angiogenic activity	favorable cytotoxicity profile	unstable and subject to degradation upon exposure to air and/or light	represses
